Results on 7 molecules are retold here after publication PMC6639853, “Deciphering Direct and Indirect Effects of Neurokinin B and GnRH in the Brain-Pituitary Axis of Tilapia” (Frontiers in Endocrinology, 2019).

The target in one assay is T1, huTAC3R (NK3R) (Homo sapiens, UniProt P29371).
T1 construct: host or cells: COS-7
T1 sequence (P29371 1-465): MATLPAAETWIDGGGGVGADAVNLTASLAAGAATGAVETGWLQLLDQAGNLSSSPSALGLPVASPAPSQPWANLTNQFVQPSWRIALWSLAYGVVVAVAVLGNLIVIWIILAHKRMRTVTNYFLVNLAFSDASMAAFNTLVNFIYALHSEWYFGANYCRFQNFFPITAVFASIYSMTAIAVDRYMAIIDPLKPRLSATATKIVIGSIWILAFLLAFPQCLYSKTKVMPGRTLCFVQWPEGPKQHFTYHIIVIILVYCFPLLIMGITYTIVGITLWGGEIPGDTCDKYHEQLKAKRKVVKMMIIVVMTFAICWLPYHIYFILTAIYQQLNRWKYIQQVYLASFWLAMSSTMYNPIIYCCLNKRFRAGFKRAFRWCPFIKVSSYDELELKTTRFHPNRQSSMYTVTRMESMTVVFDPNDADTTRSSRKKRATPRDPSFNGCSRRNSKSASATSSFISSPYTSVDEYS
In words: CRE-/SRE-Luc receptor transactivation reporter assay in COS-7 cells, human TAC3R. It is filed as cell-based. Conditions: mean ± SEM. The text has this:
(§1) Receptor transactivation assays were generally performed according to Biran et al. ([10]). Briefly, in order to study the signaling pathways of the novel fish NKB and NKF analogs, the entire coding sequence of tiTac3ra (GenBank accession no. KF471674), tiTac3rb (GenBank accession no. KF471675), zfTac3ra (GenBank accession no. JF317292) and zfTac3rb (GenBank accession no. JF317293) were inserted into pcDNA3.1 (Invitrogen). To differentiate between the protein kinase A (PKA) and PKC signal transduction pathways, we used a sensitive luciferase (Luc) reporter gene assay. […] The cDNA clone for human TAC3R was obtained from the Missouri S&T cDNA Resource Center (www.cdna.org). Three micrograms of each construct together with three micrograms of a luciferase reporter plasmid were transiently co-transfected into COS-7 cells. […] EC50 values were calculated from dose response curves by means of computerized non-linear curve fitting on baseline-corrected (control) values using Prism version 6 software (GraphPad).

Another assay concerns the target tiTac3rb (Oreochromis niloticus, UniProt A0A075QUD7). In words: cell-based. Conditions: COS-7 cells, mean ± SEM.
The target in a further assay is tiTac3ra (Oreochromis niloticus, UniProt A0A075QPN8). In words: cell-based. The following applies: COS-7 cells, mean ± SEM.
A further assay has as its target T2, zfTac3ra (Danio rerio, UniProt H6A6A7).
T2 sequence (H6A6A7 1-399): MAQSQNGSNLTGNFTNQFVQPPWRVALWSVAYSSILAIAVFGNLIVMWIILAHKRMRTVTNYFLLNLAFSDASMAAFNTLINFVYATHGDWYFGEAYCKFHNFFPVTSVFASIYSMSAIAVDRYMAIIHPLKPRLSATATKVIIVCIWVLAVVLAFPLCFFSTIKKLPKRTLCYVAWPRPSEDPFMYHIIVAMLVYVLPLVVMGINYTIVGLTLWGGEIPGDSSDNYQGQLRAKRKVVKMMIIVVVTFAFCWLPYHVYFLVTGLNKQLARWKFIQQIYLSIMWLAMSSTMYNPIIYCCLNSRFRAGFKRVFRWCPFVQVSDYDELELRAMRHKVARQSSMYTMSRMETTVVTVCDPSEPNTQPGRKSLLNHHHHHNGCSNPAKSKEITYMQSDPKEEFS
The experiment in a line: CRE-/SRE-Luc receptor transactivation reporter assay in COS-7 cells, zebrafish Tac3ra. Type of assay: cell-based. The following applies: mean ± SEM.
From the text: as §1

Another assay concerns the target T3, zfTac3rb (Danio rerio, UniProt F1R3V0).
T3 sequence (F1R3V0 1-395): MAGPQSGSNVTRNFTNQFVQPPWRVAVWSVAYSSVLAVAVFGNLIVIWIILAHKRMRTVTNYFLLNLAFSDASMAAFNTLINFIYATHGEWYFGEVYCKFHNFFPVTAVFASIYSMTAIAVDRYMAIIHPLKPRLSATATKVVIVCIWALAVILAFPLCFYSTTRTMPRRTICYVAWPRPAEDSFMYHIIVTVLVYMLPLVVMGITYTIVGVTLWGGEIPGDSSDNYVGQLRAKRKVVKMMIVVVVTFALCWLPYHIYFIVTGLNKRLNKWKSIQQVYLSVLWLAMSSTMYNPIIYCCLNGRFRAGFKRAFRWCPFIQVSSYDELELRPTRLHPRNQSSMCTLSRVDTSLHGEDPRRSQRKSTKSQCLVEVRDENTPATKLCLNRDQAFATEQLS
The experiment in a line: CRE-/SRE-Luc receptor transactivation reporter assay in COS-7 cells, zebrafish Tac3rb. It is filed as cell-based. Conditions: mean ± SEM.
From the text: as §1

Another assay relates to female tilapia. In words: In vivo effect on GH, FSH and LH plasma levels (ELISA) after IP injection. Further details: species or system Nile tilapia (O. niloticus). The following applies: peptides/analogs 100 μg/kg BW, sGnRHa 10 μg/kg BW. As to the method:
Adult female tilapia (BW 89.29 ± 32.93 g) were injected IP with saline, sGnRH analog ([…]; 10 μg/kg BW; [[…],[…]-Net]-mammalian GnRH; Bachem), tiNKB, tiNKF, or their analogs at 100 μg/kg BW (n = 8 fish per group). The fish were bled from the caudal blood vessels into heparinized syringes 1, 2, 4, 8, and 24 h after injection and blood was centrifuged (3,200 rpm for 30 min at 4°C) to obtain plasma samples, which were stored at -20°C until assayed. This time course is according to standard protocols used previously ([28], [29]) to test the effect of GnRH and other hypothalamic neuropeptides on circulating levels of LH, FSH, and GH in tilapia. Blood samples were collected from the caudal vasculature. Three independent experiments were carried out for the in vivo studies. Levels of LH, FSH, and GH in the plasma were measured by specific competitive ELISAs developed for tilapia ([30], [31]) based on recombinant ([…] or rtiGH. Primary antisera was produced against […]β, or rtGH ([31]), and […]βα ([28]) or rtGH was used for generating the standard curves.

[1] abbreviates: SRE-Luc reporter (PKC/Ca2+), read-out: EC50 huTAC3R (NK3R) SRE.
The mark [2] stands for this setting: EC50 tiTac3rb CRE, CRE-Luc reporter (PKA/cAMP).
Setting [3] is: EC50 tiTac3rb SRE, SRE-Luc reporter (PKC/Ca2+).
[4] abbreviates: EC50 tiTac3ra CRE, CRE-Luc reporter (PKA/cAMP).
Setting [5] is: EC50 tiTac3ra SRE, SRE-Luc reporter (PKC/Ca2+).
The mark [6] stands for this setting: CRE-Luc reporter (PKA/cAMP), read-out: EC50 huTAC3R (NK3R) CRE.
Where [7] appears, read: CRE-Luc reporter (PKA/cAMP), read-out: EC50 zfTac3ra CRE.
Setting [8] is: SRE-Luc reporter (PKC/Ca2+), read-out: EC50 zfTac3ra SRE.
Where [9] appears, read: CRE-Luc reporter (PKA/cAMP), read-out: EC50 zfTac3rb CRE.
Where [10] appears, read: SRE-Luc reporter (PKC/Ca2+), read-out: EC50 zfTac3rb SRE.

Where “and” joins values, the source holds several entries; their conditions need not be identical. Equal values may be shown once. Read-outs that look alike come from different tables or passages of the source. Starred links: 1 amine or outer side, 2 acyl side, 3 side chain; linkers in the order of their positions; H or OH if unused. Non-standard residues stand in square brackets, D forms with d. Residues, ends and D or L forms follow the SMILES beside them. NMeI = CC[C@H](C)[C@H](NC)C(=O)O; Suc = O=C(CCC(=O)[*:2])[*:1]; NMeV = CN[C@H](C(=O)O)C(C)C

Chain of tiTac3ra (A0A075QPN8 1-415): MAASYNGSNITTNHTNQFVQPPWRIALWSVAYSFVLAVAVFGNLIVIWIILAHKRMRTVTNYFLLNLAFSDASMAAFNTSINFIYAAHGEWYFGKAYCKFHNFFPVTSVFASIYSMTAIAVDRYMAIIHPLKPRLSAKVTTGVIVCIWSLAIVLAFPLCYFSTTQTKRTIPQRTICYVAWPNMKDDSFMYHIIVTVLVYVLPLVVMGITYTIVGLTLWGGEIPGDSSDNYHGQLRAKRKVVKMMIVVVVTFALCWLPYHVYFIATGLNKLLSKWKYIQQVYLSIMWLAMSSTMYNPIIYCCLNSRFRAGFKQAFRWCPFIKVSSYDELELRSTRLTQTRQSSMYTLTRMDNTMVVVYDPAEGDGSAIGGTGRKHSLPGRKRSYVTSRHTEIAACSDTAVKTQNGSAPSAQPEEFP
Chain of tiTac3rb (A0A075QUD7 1-361): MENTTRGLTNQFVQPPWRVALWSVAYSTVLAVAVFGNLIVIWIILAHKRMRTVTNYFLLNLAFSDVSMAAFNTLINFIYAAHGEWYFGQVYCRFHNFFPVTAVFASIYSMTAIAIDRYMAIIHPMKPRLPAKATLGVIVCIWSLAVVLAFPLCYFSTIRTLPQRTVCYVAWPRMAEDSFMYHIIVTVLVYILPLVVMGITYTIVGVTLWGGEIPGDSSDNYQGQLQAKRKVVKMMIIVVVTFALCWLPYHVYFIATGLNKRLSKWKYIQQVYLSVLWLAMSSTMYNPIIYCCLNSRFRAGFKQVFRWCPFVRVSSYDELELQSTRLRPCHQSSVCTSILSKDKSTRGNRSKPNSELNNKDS
From the text for tiTac3ra: (§2) Receptor transactivation assays were generally performed according to Biran et al. ([10]). Briefly, in order to study the signaling pathways of the novel fish NKB and NKF analogs, the entire coding sequence of tiTac3ra (GenBank accession no. KF471674), tiTac3rb (GenBank accession no. KF471675), zfTac3ra (GenBank accession no. JF317292) and zfTac3rb (GenBank accession no. JF317293) were inserted into pcDNA3.1 (Invitrogen). To differentiate between the protein kinase A (PKA) and PKC signal transduction pathways, we used a sensitive luciferase (Luc) reporter gene assay. […] Three micrograms of each construct together with three micrograms of a luciferase reporter plasmid were transiently co-transfected into COS-7 cells. […] EC50 values were calculated from dose response curves by means of computerized non-linear curve fitting on baseline-corrected (control) values using Prism version 6 software (GraphPad).
From the text for tiTac3rb: as §2

With `CC[C@H](C)[C@H](NC(=O)[C@H](CC(=O)O)NC(=O)CCC(=O)O)C(=O)N[C@@H](Cc1ccccc1)C(=O)N(C)[C@H](C(=O)NCC(=O)N[C@@H](CC(C)C)C(=O)N[C@@H](CCSC)C(N)=O)[C@@H](C)CC` [tiNKB analog, Succ-Asp-Ile-Phe-N(Me)Ile-Gly-Leu-Met-NH2] (Suc-DIF[NMeI]GLM-NH2), the EC50 stood at 210.2 ± 1.18 nM at huTAC3R (NK3R) (setting [1]); 6.88 ± 0.29 nM at tiTac3rb (setting [2]); 1.73 ± 0.46 nM at tiTac3rb (setting [3]); 12.9 ± 0.36 nM at tiTac3ra (setting [4]); 12.3 ± 0.29 nM at tiTac3ra (setting [5]).
With `CSCC[C@H](NC(=O)[C@H](CC(C)C)NC(=O)CNC(=O)[C@@H](NC(=O)[C@H](Cc1ccccc1)NC(=O)[C@H](CO)NC(=O)[C@H](CC(=O)O)NC(=O)[C@H](Cc1ccc(O)cc1)NC(=O)[C@H](CC(=O)O)NC(=O)[C@H](CC(C)C)NC(=O)[C@H](CC(=O)O)NC(=O)[C@H](CC(N)=O)NC(=O)[C@@H](N)Cc1ccc(O)cc1)C(C)C)C(N)=O` [tiNKF] (H-YNDLDYDSFVGLM-NH2), the 50% effective concentration (EC50) on huTAC3R (NK3R) (setting [6]) was 0.51 ± 0.24 nM; at huTAC3R (NK3R) (setting [1]), 32.58 ± 0.05 nM; on tiTac3rb (setting [2]), 2.13 ± 0.42 nM; at tiTac3rb (setting [3]), 0.46 ± 0.49 nM; on tiTac3ra (setting [4]), 3.17 ± 0.18 nM; on tiTac3ra (setting [5]), 0.2 nM and 0.24 nM.
Turning to `CC[C@H](C)[C@H](NC(=O)[C@H](CC(=O)O)NC(=O)CCC(=O)O)C(=O)N[C@@H](Cc1ccccc1)C(=O)N(C)[C@H](C(=O)NCC(=O)N[C@@H](CC(C)C)C(=O)N[C@@H](CCSC)C(N)=O)C(C)C` [zfNKBa analog, Succ-Asp-Ile-Phe-N(Me)Val-Gly-Leu-Met-NH2] (Suc-DIF[NMeV]GLM-NH2), the EC50 at huTAC3R (NK3R) (setting [6]) came out at 11.5 ± 0.4 nM; on huTAC3R (NK3R) (setting [1]) it was 0.03 nM; at zfTac3ra (setting [7]), 873.2 ± 0.64 nM; on zfTac3ra (setting [8]) it was 7.88 ± 1.89 nM; at zfTac3rb (setting [9]) it was 0.781 ± 0.15 nM; on zfTac3rb (setting [10]), 5.79 ± 0.52 nM.
In the case of `CC[C@H](C)[C@H](NC(=O)[C@H](CC(=O)O)NC(=O)[C@H](Cc1c[nH]cn1)NC(=O)[C@H](CCSC)NC(=O)[C@@H](N)CCC(=O)O)C(=O)N[C@@H](Cc1ccccc1)C(=O)N[C@H](C(=O)NCC(=O)N[C@@H](CC(C)C)C(=O)N[C@@H](CCSC)C(N)=O)C(C)C` [zfNKBa] (H-EMHDIFVGLM-NH2), the 50% effective concentration (EC50) was found to be 1.71 ± 0.32 nM on huTAC3R (NK3R) (setting [6]); 0.11 ± 0.3 nM at huTAC3R (NK3R) (setting [1]); 26.5 ± 0.38 nM on zfTac3ra (setting [7]); 139.6 ± 0.38 nM on zfTac3ra (setting [8]); 41.37 ± 0.18 nM at zfTac3rb (setting [9]); 1.1 ± 0.13 nM at zfTac3rb (setting [10]).
Take `CC[C@H](C)[C@H](NC(=O)CNC(=O)[C@@H](NC(=O)[C@@H](N)CO)[C@@H](C)O)C(=O)N[C@@H](CC(N)=O)C(=O)N[C@@H](CCCNC(=N)N)C(=O)N[C@@H](CCC(=O)O)C(=O)N[C@@H](C)C(=O)N[C@@H](Cc1c[nH]cn1)C(=O)N[C@@H](CC(C)C)C(=O)N1CCC[C@H]1C(=O)N[C@@H](Cc1ccccc1)C(=O)N[C@@H](CCCNC(=N)N)C(=O)N1CCC[C@H]1C(=O)N[C@@H](CC(N)=O)C(=O)N[C@@H](CCSC)C(=O)N[C@@H](CC(N)=O)C(=O)N[C@@H](CC(=O)O)C(=O)N[C@H](C(=O)N[C@@H](Cc1ccccc1)C(=O)N[C@H](C(=O)NCC(=O)N[C@@H](CC(C)C)C(=O)N[C@@H](CC(C)C)C(=O)N[C@@H](CCC(=O)O)C(=O)N[C@@H](CCSC)C(=O)N[C@@H](Cc1c[nH]cn1)C(=O)N[C@@H](CC(=O)O)C(=O)N[C@H](C(=O)N[C@@H](Cc1ccccc1)C(=O)N[C@H](C(=O)NCC(=O)N[C@@H](CC(C)C)C(=O)N[C@@H](CCSC)C(N)=O)C(C)C)[C@@H](C)CC)C(C)C)[C@@H](C)CC` [zfNKBb] (H-STGINREAHLPFRPNMNDIFVGLLEMHDIFVGLM-NH2): the EC50 on huTAC3R (NK3R) (setting [6]) was 17.4 ± 0.15 nM; on huTAC3R (NK3R) (setting [1]), 18.7 ± 0.25 nM; on zfTac3ra (setting [7]), 0.94 nM and 0.948 nM; at zfTac3ra (setting [8]), 84.98 ± 0.31 nM; on zfTac3rb (setting [9]), 101.4 ± 0.37 nM; at zfTac3rb (setting [10]) it was 17.9 ± 0.43 nM.
For `CC[C@H](C)[C@H](NC(=O)[C@H](CC(=O)O)NC(=O)[C@H](CC(N)=O)NC(=O)[C@@H](N)Cc1ccc(O)cc1)C(=O)N[C@@H](CC(=O)O)C(=O)N[C@@H](Cc1ccc(O)cc1)C(=O)N[C@@H](CC(=O)O)C(=O)N[C@@H](CO)C(=O)N[C@@H](Cc1ccccc1)C(=O)N[C@H](C(=O)NCC(=O)N[C@@H](CC(C)C)C(=O)N[C@@H](CCSC)C(N)=O)C(C)C` [zfNKF] (H-YNDIDYDSFVGLM-NH2), the EC50 at huTAC3R (NK3R) (setting [6]) is 1.25 nM; at huTAC3R (NK3R) (setting [1]), 0.18 ± 0.52 nM; at zfTac3ra (setting [7]), 5.47 ± 0.43 nM; at zfTac3ra (setting [8]), 0.51 ± 0.36 nM; on zfTac3rb (setting [9]), 0.032 nM; on zfTac3rb (setting [10]), 25.51 ± 0.23 nM.
In the case of “[D-Ala^6,Pro^9-Net]-mammalian GnRH [sGnRHa]”, the “duration of increased plasma LH post-injection” value in the assay on female tilapia is “up to 4 h”.
